PubChem BioAssay AID2060497 (Molecular Pharmacology Branch, DTP, NCI, 2025)

Tested on: 317291-083-R-J1-PDC complex spheroids, viability
Assay: Anticancer human tumor 317291-083-R-J1-PDC patient-derived soft tissue sarcoma cell line growth inhibition [GQUAD]
Conditions: for IC50: curve of first compound; for viability, T/C: stronger effect = lower value
How it was run: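 Tumor cells were grown as complex spheroids with HUVEC endothelial cells and mesenchymal stem cells as stroma. G-quadruplex stabilizers were combined with targeted agents over half-log dilutions from near the clinical Cmax, or from 10 microM.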

[1] = second compound 0.0316 µM, first compound 0.0316 µM
[2] = second compound 0.0316 µM, first compound 0.1 µM
[3] = second compound 0.0316 µM, first compound 0.316 µM
[4] = second compound 0.0316 µM, first compound 1 µM
[5] = second compound 0.0316 µM, first compound 3.16 µM
[6] = second compound 0.0316 µM, first compound 10 µM
[7] = second compound 0.1 µM, first compound 0.0316 µM
[8] = second compound 0.1 µM, first compound 0.1 µM
[9] = second compound 0.1 µM, first compound 0.316 µM
[10] = second compound 0.1 µM, first compound 1 µM
[11] = second compound 0.1 µM, first compound 3.16 µM
[12] = second compound 0.1 µM, first compound 10 µM
[13] = second compound 0.316 µM, first compound 0.0316 µM
[14] = second compound 0.316 µM, first compound 0.1 µM
[15] = second compound 0.316 µM, first compound 0.316 µM
[16] = second compound 0.316 µM, first compound 1 µM
[17] = second compound 0.316 µM, first compound 3.16 µM
[18] = second compound 0.316 µM, first compound 10 µM
[19] = second compound 1 µM, first compound 0.0316 µM
[20] = second compound 1 µM, first compound 0.1 µM
[21] = second compound 1 µM, first compound 0.316 µM
[22] = second compound 1 µM, first compound 1 µM
[23] = second compound 1 µM, first compound 3.16 µM
[24] = second compound 1 µM, first compound 10 µM
[25] = second compound 3.16 µM, first compound 0.0316 µM
[26] = second compound 3.16 µM, first compound 0.1 µM
[27] = second compound 3.16 µM, first compound 0.316 µM
[28] = second compound 3.16 µM, first compound 1 µM
[29] = second compound 3.16 µM, first compound 3.16 µM
[30] = second compound 3.16 µM, first compound 10 µM
[31] = second compound 10 µM, first compound 0.0316 µM
[32] = second compound 10 µM, first compound 0.1 µM
[33] = second compound 10 µM, first compound 0.316 µM
[34] = second compound 10 µM, first compound 1 µM
[35] = second compound 10 µM, first compound 3.16 µM
[36] = second compound 10 µM, first compound 10 µM
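Note: spheroids exposed to compounds for one week before readout.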
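Throughout, for viability, T/C: percent viability relative to DMSO vehicle wells taken as 100%.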

COc1ncnc(C2CC2)c1-c1ncc2cnn(Cc3ccc(-c4nc(C(F)(F)F)cn4C(C)C)cc3)c2n1 + Cc1cnc(CNC(=O)c2c(=O)c3ccc(N4CCCN(C)CC4)nc3n3c2sc2ccccc23)cn1
IC50 (second compound 0.0316 µM): > 10000 nM | IC50 (second compound 0.1 µM): 138 nM | IC50 (second compound 0.316 µM): 373 nM | IC50 (second compound 1 µM): < 31.6 nM | IC50 (second compound 3.16 µM): < 31.6 nM | IC50 (second compound 10 µM): < 31.6 nM | viability, T/C [1]: 78.3% | viability, T/C [2]: 76.8% | viability, T/C [3]: 71.6% | viability, T/C [4]: 72.2% | viability, T/C [5]: 67% | viability, T/C [6]: 54.1% | viability, T/C [7]: 59.5% | viability, T/C [8]: 51.1% | viability, T/C [9]: 47.3% | viability, T/C [10]: 39.3% | viability, T/C [11]: 56.1% | viability, T/C [12]: 53% | viability, T/C [13]: 46.6% | viability, T/C [14]: 48.1% | viability, T/C [15]: 63.6% | viability, T/C [16]: 31.2% | viability, T/C [17]: 37.4% | viability, T/C [18]: 32% | viability, T/C [19]: 31.3% | viability, T/C [20]: 36.8% | viability, T/C [21]: 44.1% | viability, T/C [22]: 30.5% | viability, T/C [23]: 32.3% | viability, T/C [24]: 25.8% | viability, T/C [25]: 20.5% | viability, T/C [26]: 13.6% | viability, T/C [27]: 30% | viability, T/C [28]: 15.5% | viability, T/C [29]: 16.2% | viability, T/C [30]: 21.2% | viability, T/C [31]: 0.63% | viability, T/C [32]: 0.19% | viability, T/C [33]: 0.22% | viability, T/C [34]: 0.19% | viability, T/C [35]: 0.26% | viability, T/C [36]: 0.24%

C=CCn1c(=O)c2cnc(Nc3ccc(N4CCN(C)CC4)cc3)nc2n1-c1cccc(C(C)(C)O)n1 + Cc1cnc(CNC(=O)c2c(=O)c3ccc(N4CCCN(C)CC4)nc3n3c2sc2ccccc23)cn1
IC50 (second compound 0.0316 µM): 171 nM | IC50 (second compound 0.1 µM): 64.7 nM | IC50 (second compound 0.316 µM): < 31.6 nM | IC50 (second compound 1 µM): < 31.6 nM | IC50 (second compound 3.16 µM): < 31.6 nM | IC50 (second compound 10 µM): < 31.6 nM | viability, T/C [1]: 79.7% | viability, T/C [2]: 65.5% | viability, T/C [3]: 31.2% | viability, T/C [4]: 28.8% | viability, T/C [5]: 17.8% | viability, T/C [6]: 17.2% | viability, T/C [7]: 57.3% | viability, T/C [8]: 45.4% | viability, T/C [9]: 30.3% | viability, T/C [10]: 19.9% | viability, T/C [11]: 14.6% | viability, T/C [12]: 14.8% | viability, T/C [13]: 43.2% | viability, T/C [14]: 27.5% | viability, T/C [15]: 22.6% | viability, T/C [16]: 20.9% | viability, T/C [17]: 12% | viability, T/C [18]: 17.6% | viability, T/C [19]: 27.7% | viability, T/C [20]: 30.3% | viability, T/C [21]: 24.6% | viability, T/C [22]: 15.1% | viability, T/C [23]: 8.69% | viability, T/C [24]: 8.16% | viability, T/C [25]: 15.6% | viability, T/C [26]: 13% | viability, T/C [27]: 19.1% | viability, T/C [28]: 4.5% | viability, T/C [29]: 4.07% | viability, T/C [30]: 2.45% | viability, T/C [31]: 0.13% | viability, T/C [32]: 0.27% | viability, T/C [33]: 0.18% | viability, T/C [34]: 1.89% | viability, T/C [35]: 0.2% | viability, T/C [36]: 0.61%
